Laboratory results as given in patent US8901118B2, “Compounds and methods for kinase modulation, and indications therefor” (Plexxikon Inc., priority 2010, dated 2014).

Key:
BCR-NTRK2 BaF3 cells = target: T1, BCR-NTRK2 BaF3 cells (Homo sapiens, UniProt Q16620); assay: BaF3 BCR-NTRK2 cell proliferation assay (ATPlite); assay type: cell-based; details: read-out: Inhibition of Cell Proliferation IC50, BCR/BaF3 TrkB
T1 construct: fused on or other part: P11274 (Breakpoint cluster region protein)
Procedure: Compounds are assessed in a variety of cell based assays. For example BaF3 cells engineered with any of BCR-FMS, BCR-KIT, BCR-FLT3, BCR-NTRK1, BCR-NTRK2, and BCR-NTRK3, are used in cell proliferation assays to assess inhibitory activity of Fms, Kit, Flt-3, TrkA, TrkB, and TrkC, respectively. An MV-4-11 (leukemia) cell proliferation assay is used to assess inhibitory activity in Flt-3, and SKNSH (human neuroblastoma) cell proliferation assay is used to assess efficacy of Fms/Trk inhibitors. Additional cells may be assayed similarly to assess the efficacy of Fms/Trk inhibitors, such as MiaPaCa (human pancreatic cancer) and Capan-1 (human pancreatic carcinoma) cells. Reagent and assay conditions are as follows: • BaF3 cells: • Maintained in RPMI containing 10% FBS, 1% PenStrep, 1% NEAA, and 1% L-Glutamine, supplemented with 1 mg/mL G418 and 5% WEHI-CM (or recombinant murine IL-3). • Confluent cells are split 1:50 to 1:100 every 3-4 days. • MV-4-11 cells: • Maintained in Iscove's Modified Dulbecco's Medium containing 10% FBS. • Confluent cells are split 1:4 every 3-4 days. • SKNSH cells: RPMI containing 10% FBS. On day 1, cells are counted, then centrifuged in a conical tube for 5 minutes at 1000 rpm. The supernatant is removed and cells are re-suspended as follows: • BaF3: resuspend in growth media +1 mg/mL G418 (without WEHFIL-3) to 2×10^5 cells/mL. • MV-4-11: resuspend in growth media to 5×10^5 cells/mL. • SKNSH: resuspend in growth media to 2×10^4 cells/mL. The cells are plated (50 μL, 150 μL for SKNSH cells) in each well of a 96-well dish (Corning 3610) and incubated at 37° C. in 5% CO2 overnight, cells plated to a final concentration of cells as follows: • BaF3: 10,000 cells per well. • MV-4-11: 25,000 cells per well. • SKNSH: 3,000 cells per well. On day 2, compound at a maximum concentration of 5 mM is serially diluted 1:3 for a total of 8 point titration with DMSO as a control. A 1 μL aliquot of each dilution point is added to 249 μL growth media and 50 μL is added to a well containing cells, providing 10 μM compound for the maximum concentration point. The cells are incubated for 3 days at 37° C. in 5% CO2. For SKNSH cells, a 0.75 μL aliquot of appropriate dilution in DMSO is added to 150 μL of cells. On day 5, ATPlite 1 step Luminescence Assay System (Perkin Elmer #6016739) is brought to room temperature along with the cell cultures. ATPlite is added to each well as follows: • BaF3: 25 μL per well. • MV-4-11: 40 μL per well. • SKNSH: 20 μL per well. The cells are incubated at room temperature for 10 minutes, then luminescence is read on Safire reader. The measured luminescence correlates directly with cell number, such that the reading as a function of compound concentration is used to determine the IC50 value.
It is understood that the results of these assays may vary as assay conditions are varied. Inhibition levels determined under the conditions described herein represent a relative activity for the compounds tested under the specific conditions employed. The cell based assays are likely to show variability due to the complexity of the system and the sensitivity thereof to any changes in the assay conditions. […] Results for compounds that are tested and show substantially no inhibition below the highest tested concentration are represented as “-” in the tables below. In some instances, the compounds were not tested in all of the assays, or assay results were not valid, as indicated by NA in the tables below.

CYP2C9 = CYP2C9 (Homo sapiens, UniProt P11712); assay: CYP2C9 inhibition (fluorescent substrate MFC); assay type: in vitro ADME; details: read-out: Cyp IC50 2C9
Chain of CYP2C9 (P11712 whole entry): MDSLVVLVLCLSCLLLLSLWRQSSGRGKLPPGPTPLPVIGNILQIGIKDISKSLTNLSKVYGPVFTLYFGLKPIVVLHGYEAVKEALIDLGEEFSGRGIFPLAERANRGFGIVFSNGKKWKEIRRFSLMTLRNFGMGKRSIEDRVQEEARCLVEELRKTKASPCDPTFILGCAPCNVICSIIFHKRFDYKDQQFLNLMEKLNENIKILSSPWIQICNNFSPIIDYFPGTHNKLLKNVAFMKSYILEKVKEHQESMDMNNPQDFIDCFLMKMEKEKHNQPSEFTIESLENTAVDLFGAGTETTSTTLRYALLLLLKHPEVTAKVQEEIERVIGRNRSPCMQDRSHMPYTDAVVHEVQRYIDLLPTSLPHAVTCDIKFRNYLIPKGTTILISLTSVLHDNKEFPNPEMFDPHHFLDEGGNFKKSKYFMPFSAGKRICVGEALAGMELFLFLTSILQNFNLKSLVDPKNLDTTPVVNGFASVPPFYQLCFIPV
Procedure: CYP (Cytochrome P450) enzymes are the major drug metabolizing enzymes present in the liver. The inhibition of CYP enzyme activity (IC50) for each of CYP1A2, CYP2C19, CYP2C9, CYP2D6, CYP3A4(BFC) and CYP3A4(BQ) is determined for compounds, where inhibition of metabolism of a known substrate leads to a decrease in the fluorescence of the metabolized product. The fluorescence of the product is monitored as a function of compound concentration. Compounds are dissolved in DMSO to a concentration of 100 mM. These are diluted 1 μL into 82 μL of acetonitrile. An 11 μL aliquot of this solution is then added to 204 μL of cofactor mix (1.3% NADPH Regeneration system Solution A, 1.04% NADPH Regeneration system Solution B from BD Biosciences, 5% acetonitrile and 0.05% DMSO). These are then serially diluted 1:1 (160 μL to 160 μL co-factor mix) for a total of 10 points. A 10 μL aliquot of this final mixture is dispensed into 384 well assay plates and incubated for 10 minutes at 37° C. […] Assay plates are incubated at 37° C. (CYP1A2-15 min; CYP2C9-45 min; CYP2C19, 2D6 and 3A4-30 min) and read in a Tecan Safire 2 plate reader (CYP1A2, 2C19 and 3A4 409 ex/460 em; CYP2C9 and 2D6 409 ex/530 em). The signal versus compound concentration is used to determine the IC50. The enzymes and substrates for this assay are obtained from BD Biosciences.

T1 sequence (Q16620 538-807): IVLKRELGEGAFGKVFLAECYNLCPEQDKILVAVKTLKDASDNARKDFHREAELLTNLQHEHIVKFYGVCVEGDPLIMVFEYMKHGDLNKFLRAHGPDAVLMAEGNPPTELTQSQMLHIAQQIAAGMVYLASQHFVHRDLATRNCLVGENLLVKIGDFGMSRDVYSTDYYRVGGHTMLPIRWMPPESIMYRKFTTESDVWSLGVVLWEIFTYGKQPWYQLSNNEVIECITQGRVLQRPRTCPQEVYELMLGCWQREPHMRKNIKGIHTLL

IC50 (BCR-NTRK2 BaF3 cells) [µM]	IC50 (CYP2C9) [µM]	Structure (SMILES)
> 10	> 10	CC1CCC(Nc2ncc(Cc3c[nH]c4ncc(Cl)cc34)cn2)CC1 (stereo not drawn) [Compound P-3009, [5-(5-Chloro-1H-pyrrolo[2,3-b]pyridin-3-ylmethyl)-pyrimidin-2-yl]-(4-methyl-cyclohexyl)-amine]
> 10	> 10	Cc1cnc2[nH]cc(Cc3cnc(Nc4ccc(F)cc4)nc3)c2c1 [Compound P-3010, (4-Fluoro-phenyl)-[5-(5-methyl-1H-pyrrolo[2,3-b]pyridin-3-ylmethyl)-pyrimidin-2-yl]-amine]
< 1	> 10	Clc1ccc(Nc2ncc(Cc3c[nH]c4ncc(Cl)cc34)cn2)cc1 [Compound P-3011, (4-Chloro-phenyl)-[5-(5-chloro-1H-pyrrolo[2,3-b]pyridin-3-ylmethyl)-pyrimidin-2-yl]-amine]
< 1	> 10	Fc1ccc(Nc2ncc(Cc3c[nH]c4ncc(Cl)cc34)cn2)cc1 [Compound P-3012, [5-(5-Chloro-1H-pyrrolo[2,3-b]pyridin-3-ylmethyl)-pyrimidin-2-yl]-(4-fluoro-phenyl)-amine]
> 10	> 10	Fc1nc(NC2CCC(F)(F)CC2)ccc1Cc1c[nH]c2ncc(Cl)cc12 [Compound P-3013, [5-(5-Chloro-1H-pyrrolo[2,3-b]pyridin-3-ylmethyl)-6-fluoro-pyridin-2-yl]-(4,4-difluoro-cyclohexyl)-amine]
> 10	–	Fc1ccccc1Nc1ncc(Cc2c[nH]c3ncc(Cl)cc23)cn1 [Compound P-3014, [5-(5-Chloro-1H-pyrrolo[2,3-b]pyridin-3-ylmethyl)-pyrimidin-2-yl]-(2-fluoro-phenyl)-amine]
> 10	–	Clc1cnc2[nH]cc(Cc3cnc(Nc4ccccc4Cl)nc3)c2c1 [Compound P-3015, (2-Chloro-phenyl)-[5-(5-chloro-1H-pyrrolo[2,3-b]pyridin-3-ylmethyl)-pyrimidin-2-yl]-amine]
< 0.01	> 10	COc1ccc(Nc2ccc(C(=O)c3c[nH]c4ncnc(NC(C)(C)C)c34)c(F)n2)cn1 [Compound P-4055, [4-(tert-butylamino)-7H-pyrrolo[2,3-d]pyrimidin-5-yl]-[2-fluoro-6-[(6-methoxy-3-pyridyl)amino]-3-pyridyl]methanone]
< 0.01	> 10	COc1ccc(Nc2ccc(C(=O)c3c[nH]c4ncnc(NC5CCC(F)(F)CC5)c34)c(F)n2)cn1 [Compound P-4056, [4-[(4,4-difluorocyclohexyl)amino]-7H-pyrrolo[2,3-d]pyrimidin-5-yl]-[2-fluoro-6-[(6-methoxy-3-pyridyl)amino]-3-pyridyl]methanone]
> 1	> 10	O=C(c1ccc(NC2CCC(F)(F)CC2)nc1Cl)c1c[nH]c2ncnc(NCC(F)(F)F)c12 [Compound P-4057, [2-chloro-6-[(4,4-difluorocyclohexyl)amino]-3-pyridyl]-[4-(2,2,2-trifluoroethylamino)-7H-pyrrolo[2,3-d]pyrimidin-5-yl]methanone]
< 1	> 10	CNc1ncnc2[nH]cc(C(=O)c3ccc(NC4CCC(F)(F)CC4)nc3Cl)c12 [Compound P-4058, [2-chloro-6-[(4,4-difluorocyclohexyl)amino]-3-pyridyl]-[4-(methylamino)-7H-pyrrolo[2,3-d]pyrimidin-5-yl]methanone]
< 0.1	5 to 10	O=C(c1ccc(NC2CCC(F)(F)CC2)nc1Cl)c1c[nH]c2ncnc(NC3CC3)c12 [Compound P-4059, [2-chloro-6-[(4,4-difluorocyclohexyl)amino]-3-pyridyl]-[4-(cyclopropylamino)-7H-pyrrolo[2,3-d]pyrimidin-5-yl]methanone]
< 0.01	> 10	CCNc1ncnc2[nH]cc(C(=O)c3ccc(Nc4ccc(C5CC5)nc4)nc3F)c12 [Compound P-4060, [6-[(6-cyclopropyl-3-pyridyl)amino]-2-fluoro-3-pyridyl]-[4-(ethylamino)-7H-pyrrolo[2,3-d]pyrimidin-5-yl]methanone]
< 0.01	> 10	O=C(c1ccc(NC2CCC(F)(F)CC2)nc1F)c1c[nH]c2ncnc(NCC(F)(F)F)c12 [Compound P-4061, [6-[(4,4-difluorocyclohexyl)amino]-2-fluoro-3-pyridyl]-[4-(2,2,2-trifluoroethylamino)-7H-pyrrolo[2,3-d]pyrimidin-5-yl]methanone]
< 0.01	> 10	O=C(c1ccc(NC2CCC(F)(F)CC2)nc1F)c1c[nH]c2ncnc(NC3CC3)c12 [Compound P-4062, [4-(cyclopropylamino)-7H-pyrrolo[2,3-d]pyrimidin-5-yl]-[6-[(4,4-difluorocyclohexyl)amino]-2-fluoro-3-pyridyl]methanone]
< 0.1	> 10	CNc1ncnc2[nH]cc(C(=O)c3ccc(NC4CCC(F)(F)CC4)nc3F)c12 [Compound P-4063, [6-[(4,4-difluorocyclohexyl)amino]-2-fluoro-3-pyridyl]-[4-(methylamino)-7H-pyrrolo[2,3-d]pyrimidin-5-yl]methanone]
< 0.01	> 10	CCc1ccc(Nc2ccc(C(=O)c3c[nH]c4ncnc(NCC(C)(C)O)c34)c(F)n2)cn1 [Compound P-4064, [6-[(6-ethyl-3-pyridyl)amino]-2-fluoro-3-pyridyl]-[4-[(2-hydroxy-2-methyl-propyl)amino]-7H-pyrrolo[2,3-d]pyrimidin-5-yl]methanone]
< 0.01	> 10	CCc1ccc(Nc2ccc(C(=O)c3c[nH]c4ncnc(N)c34)c(F)n2)cn1 [Compound P-4065, (4-amino-7H-pyrrolo[2,3-d]pyrimidin-5-yl)-[6-[(6-ethyl-3-pyridyl)amino]-2-fluoro-3-pyridyl]methanone]
–	> 10	Cc1ccc(Nc2ccc(C(=O)c3c[nH]c4ncnc(NCC5CC5)c34)c(F)n2)cn1 [Compound P-4113, [4-(cyclopropylmethylamino)-7H-pyrrolo[2,3-d]pyrimidin-5-yl]-[2-fluoro-6-[(6-methyl-3-pyridyl)amino]-3-pyridyl]methanone]
–	> 10	CCCNc1ncnc2[nH]cc(C(=O)c3ccc(Nc4ccc(C)nc4)nc3F)c12 [Compound P-4114, [2-fluoro-6-[(6-methyl-3-pyridyl)amino]-3-pyridyl]-[4-(propylamino)-7H-pyrrolo[2,3-d]pyrimidin-5-yl]methanone]
